Assay results as given in US8685952B2, “Method for the treatment of diabetes” (KOWA Co., Ltd., priority 2006, dated 2014).
Where a name gives a salt, the structure may show the parent alone.

What was measured:
[1] = tested on: KKAy mice; experiment: oral glucose tolerance test in KKAy mice after 21 days of oral administration; assay type: in vivo; details: male KKAy mice; oral once a day for 21 days; pitavastatin 10 mg/kg, pravastatin 50 mg/kg, enalapril maleate 1 mg/kg; glucose 2 g/kg oral after 18 h fasting; compared with control group (combination also vs single administration groups, P<0.05)
Method: Male KKAy mice (age: 10 weeks, Nippon Cler Co., Ltd.) were provided. Throughout the duration of the experiment, the mice were housed in a cage with a controlled light/dark cycle (duration of light period with a room light: 7:00 a.m. to 7:00 p.m.) at a temperature of 23±3° C. and a humidity of 55±15% and were allowed to freely take a solid chow (CE-2; Nippon Cler Co., Ltd.) and tap water. Pitavastatin and/or enalapril maleate were suspended in a 0.5-mass % aqueous solution of carboxymethyl cellulose (Iwai Kagaku Co., Ltd.) so that the pitavastatin content and the enalapril maleate content were adjusted to 1 mg/mL and 0.1 mg/mL, respectively. Since pitavastatin has a water content of 9.43%, pitavastatin was weighed in an amount of 1.1 times by mass the target dose for compensation. The suspension was refrigerated (4° C.) in a light-tight bottle. The suspensions were prepared every 7 days. Twenty four KKAy mice were randomly divided into the following four groups (six mice per group): a control group, a pitavastatin alone (10 mg/kg) group, an enalapril maleate alone (1 mg/kg) group, and a pitavastatin (10 mg/kg) and enalapril maleate (1 mg/kg) combined use group. Each of pitavastatin and enalapril maleate was orally administered once a day at a dose of 10 mL/kg for 21 days, and a 0.5 mass % aqueous sodium carboxymethyl cellulose solution (10 mL/kg) was orally administered to the control group. […] Immediately after collection, blood glucose level was determined by means of a […] reader (GR-101, product of Terumo Co., Ltd.). After determination of the initial blood glucose level, an aqueous glucose solution was orally administered to each mouse (2 g/10 mL/kg), and blood glucose level was determined in a similar manner at 15, 30, 60, and 120 minutes after administration of glucose. In each group, AUC of blood glucose level was calculated. The differences between the control group and the drug-administered groups were analyzed on the basis of Dunnett's multiple comparison test, preceded by Bartlett's analysis of variance. […]

[2] = tested on: KKAy mice; details: type II diabetes model, reported in the literature; cited from earlier work

Compound | AUC of blood glucose level (to glucose tolerance hour 2) [1] | effect on impaired glucose tolerance / insulin resistance [2]
CC[C@H](C)C(=O)O[C@H]1C[C@H](O)C=C2C=C[C@H](C)[C@H](CC[C@@H](O)C[C@@H](O)CC(=O)O)[C@H]21 [pravastatin, pravastatin sodium] | tended to be reduced | effect of reversing impaired glucose tolerance
O=C([O-])C[C@H](O)C[C@H](O)/C=C/c1c(C2CC2)nc2ccccc2c1-c1ccc(F)cc1.O=C([O-])C[C@H](O)C[C@H](O)/C=C/c1c(C2CC2)nc2ccccc2c1-c1ccc(F)cc1.[Ca+2] [pitavastatin, pitavastatin calcium] | tended to be reduced | effect of improving impaired glucose tolerance
CCOC(=O)[C@H](CCc1ccccc1)N[C@@H](C)C(=O)N1CCC[C@H]1C(=O)O [enalapril maleate] | tended to be reduced | –
CCOC(=O)[C@H](CCc1ccccc1)N[C@H]1CS[C@H](c2cccs2)CN(CC(=O)O)C1=O [temocapril] | – | reduction of insulin resistance
